Results: publication PMC5381946 (PLoS Pathogens, 2017)

Tests used:
retinal angiogenesis = tested on: retinal angiogenesis; set-up: method as in PMID 20937296, PMID 24624338; conditions: in vitro and in an animal model; cited from earlier work
KSHV [1] = assay: KSHV virion production (encapsidated viral DNA in media) from TPA-induced BCBL-1 cells; format: cell-based, Kaposi's sarcoma-associated herpesvirus (KSHV); conditions: for EC50: Human gammaherpesvirus 8, BCBL1, 120 h, TPA-induced BCBL-1, encapsidated viral DNA in media 5 days post-induction, read-out: EC50 for blocking KSHV virion production
KSHV-infected PDLSCs [2] = assay: ELISA of angiogenic growth factors secreted by KSHV-infected PDLSCs; format: cell-based, human; conditions: KSHV-PDLSCs treated 24 hours, media changed, collected after a further 24 hours
Description: (§1) KS has been considered as a cytokine disease as KS lesions over-produce cytokines, especially angiogenic growth factors, that contribute to the major pathogenic features of KS [53, 54]. In the early stage, KS is not a real sarcoma but an angiohyperplastic-inflammatory lesion mediated by inflammatory cytokines and angiogenic factors. The finding that the paracrine-regulated angiogenesis requires the redox function of APE1 (Fig 2) prompted us to further investigate if blockade of APE1 redox function by C10 could reduce cytokine and angiogenic factor production. […] Then the culture media were collected and examined for the expression of VEGF-A and IL-6 by ELISA.
(§2) Levels of VEGF-A, IL-6 and IL-8 in cell culture supernatants were determined using specific ELISA kits for human VEGF-A (eBioscience), IL-6 (BD) and IL-8 (Xin Bosheng, China) according to the manufacturer instructions.

KSHV [3] = assay: KSHV lytic DNA replication (intracellular viral genomic DNA, real-time PCR) in TPA-induced BCBL-1 cells; format: cell-based, Kaposi's sarcoma-associated herpesvirus (KSHV); conditions: Human gammaherpesvirus 8, BCBL1, compound added 3 h post-induction, intracellular viral genomic DNA at 48 h post-induction
[4] = set-up: method as in PMID 18627350; conditions: cited from earlier work
KSHV-infected PDLSCs [5] = assay: In vitro Matrigel tube formation assay with KSHV-infected PDLSCs; conditions: for paracrine-mediated angiogenesis (tubulogenesis of PDLSCs in conditioned media): conditioned media from KSHV-infected PDLSCs treated 24 hours with compound
pancreatic cancer = tested on: pancreatic cancer; set-up: method as in PMID 21700832; conditions: cell lines and pancreatic cancer xenograft model in mice; cited from earlier work
in vitro = conditions: human
[6] = biological target: APE1 exonuclease activity (Homo sapiens, UniProt P27695); assay: Exonuclease assay for APE1 C-terminal (DNA base excision) activity; format: biochemical
RTA promoter = format: cell-based, human
[7] = Cytotoxicity by Trypan blue exclusion in BCBL-1 cells; conditions: human
APE1 [8] = biological target: T1, APE1 (Homo sapiens, UniProt P27695); assay: Differential scanning fluorimetry (DSF) thermal shift of APE1; conditions: APE1 2 μM, incubated with compound at 37°C for 30 min; melting curves shifted to the left
APE1 redox activity = biological target: T2, APE1 redox activity (Homo sapiens, UniProt P27695); assay: EMSA-based assay for APE1 redox activity (APE1-dependent AP-1 DNA binding); format: biochemical; conditions: reduced APE1 0.1 μM, purified c-jun/c-fos
T2 construct: 6xHis (N); made in house; host or cells: E. coli (Roseta)

KSHV [9] = assay: microbe, parasite or virus in culture; conditions: Human gammaherpesvirus 8, 3 h, read-out: EC50 for virion production
APE1 [10] = biological target: T1, APE1; assay: Surface plasmon resonance (SPR) binding to APE1
KSHV [11] = tested on: KSHV
KSHV [12] = assay: KSHV lytic DNA replication in doxycycline-induced iSLK.219 cells; format: cell-based, Kaposi's sarcoma-associated herpesvirus (KSHV); conditions: Human gammaherpesvirus 8, doxycycline 3 h, then C10, read-out: IC50 for viral lytic DNA replication
[13] = Cytotoxicity (MTT assay) in iSLK.219 cells; format: cell-based; conditions: human
Description: The medium was replaced with DMSO.
(PDF) Click here for additional data file.

AP-1 promoter = assay: AP-1 promoter-luciferase reporter assay in 293T cells; format: cell-based, human; conditions: TPA induction, varying C10 concentrations
KSHV-infected HUVECs = assay: ELISA of VEGF-A, IL-6 and IL-8 secreted by KSHV-infected HUVECs; format: cell-based, human; conditions: S3 Fig
Description: as §1, §2
Supplementary file ppat.1006289.s003.pdf: S3 Fig Effects of C10 on KSHV-mediated secretion of VEGF-A, IL-6 and IL-8 from HUVECs. KSHV-infected HUVECs were treated with either C10 for 24 hours. After changing media to remove C10 from the media, cells were continued to culture for 24 hours. Then the culture media were collected and examined for the expression of VEGF-A, IL-6 and IL-8 by ELISA. (PDF) Click here for additional data file.

KSHV-infected PDLSCs [14] = assay: Matrigel-transwell cell invasion assay with KSHV-infected PDLSCs; conditions: C10 in different concentrations
[15] = tested on: KSHV-induced angiogenesis; assay: Murine Matrigel plug assay of angiogenesis by KSHV-infected PDLSCs; format: in vivo; conditions: C10 in varying concentrations mixed with Matrigel; C57BL/6 mice; day 7
Description: Next, we employed a murine Matrigel plug assay to examine the ability of C10 to inhibit angiogenesis […]. KSHV-infected and mock-infected PDLSCs were mixed with Matrigel (without any cytokines) and implanted into C57BL/6 mice. In day 7, the matrigel plugs were stripped and examined for new blood vessel formation. […] The effect of C10 on KSHV-mediated angiogenesis in the […] assay was quantitated by measuring the hemoglobin content after homogenizing the Matrigel plugs using Drabkin’s reagent. The result, shown in Fig 6C (right panel), is consistent with that of in vitro Matrigel tubule formation assay.
Female C57BL/6 mice (4 to 6 weeks old) were obtained from the Sun Yat-sen University Animal Center. Five animals were used per treatment group. 5-10x10^6 cells in 100–200 μl medium were prepared and thoroughly mixed with 500 μl matrigels to total volume of 600–800 μl, and subsequently implanted to mice by inguinal injection. After even days, the mice were killed and matrigel plugs were removed. The Matrigel plugs were photographed and subsequently dissolved in 1 ml Dispase reagent for 16 h at 37°C. After removal of debris by centrifugation, hemoglobin was qualified using Drabkin's reagent (Sigma-Aldrich).

T1 sequence (P27695 whole entry): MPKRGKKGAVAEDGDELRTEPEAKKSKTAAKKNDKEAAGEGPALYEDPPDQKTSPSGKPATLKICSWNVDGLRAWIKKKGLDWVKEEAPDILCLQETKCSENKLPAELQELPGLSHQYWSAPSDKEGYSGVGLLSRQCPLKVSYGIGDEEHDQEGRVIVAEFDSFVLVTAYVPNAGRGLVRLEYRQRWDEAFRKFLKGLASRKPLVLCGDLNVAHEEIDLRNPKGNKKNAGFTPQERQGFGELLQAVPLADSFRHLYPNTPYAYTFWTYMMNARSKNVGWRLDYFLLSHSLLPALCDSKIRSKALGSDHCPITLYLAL
Chain of APE1 exonuclease activity (P27695 whole entry): as above
T2 sequence (P27695 whole entry): as above

CCCCCCCCC/C(=C\C1=C(C)C(=O)C(OC)=C(OC)C1=O)C(=O)O [E3330]
retinal angiogenesis (retinal angiogenesis): blocks retinal angiogenesis in vitro and in an animal model
EC50 (KSHV [1]): 8.5 µM
levels of secreted angiogenic growth factors (VEGF-A, IL-6) by ELISA (KSHV-infected PDLSCs [2]): able to reduce the levels of these angiogenic growth factors
IC50 (KSHV [3]): 17.7 µM
cytotoxicity [4]: low cytotoxicity
tubulogenesis of KSHV-PDLSC (total tube length) (KSHV-infected PDLSCs [5]; compound present on Matrigel at different concentrations): showed inhibitory activity at higher doses
paracrine-mediated angiogenesis (tubulogenesis of PDLSCs in conditioned media) (KSHV-infected PDLSCs [5]): capable of inhibiting paracrine-mediated angiogenesis
tumor growth (pancreatic cancer): cause tumor growth inhibition
CC50 at 48 h (in vitro): 112 µM

O=c1c(O)c(-c2cc(O)c(O)c(O)c2)oc2cc(O)cc(O)c12 [Myrecetin, reference compound]
effect on APE1 exonuclease activity ([6]; positive control, different concentrations): dose-dependent inhibitory response

Cc1ccc(/C=C/C(=O)CC(=O)/C=C/c2ccc(C)o2)o1 [C10, (1E,6E)-1,7-bis(5-methylfuran-2-yl) hepta-1-6-diene-3,5–dione]
TPA-induced RTA promoter activity (luciferase) (RTA promoter): able to block
auto-regulation of the RTA promoter activity by RTA (luciferase) (RTA promoter): able to block auto-regulation of the RTA promoter activity
fold by which EC50 (virion release) is lower than IC50 (intracellular viral DNA replication) (KSHV [1]; BCBL-1): 29 fold
selectivity index (CC50 / EC50) (KSHV [1]; BCBL-1): 165
EC50 (KSHV [1]): 0.16 µM
levels of secreted angiogenic growth factors (VEGF-A, IL-6) by ELISA (KSHV-infected PDLSCs [2]): able to reduce the levels of these angiogenic growth factors
IC50 (KSHV [3]): 4.6 µM
CC50 at 48 h [7]: 26.4 µM
shift of the Tm of APE1 (DSF) (APE1 [8]): 1.3 °C
paracrine-mediated angiogenesis (tubulogenesis of PDLSCs in conditioned media) (KSHV-infected PDLSCs [5]): capable of inhibiting paracrine-mediated angiogenesis
IC50 (APE1 redox activity): 17 µM
EC50 (KSHV [9]): 3.2 µM
Kd (APE1 [10]): 0.189 µM
SI (CC50 / EC50) (KSHV [11]): 23.4
IC50 (KSHV [12]): 5.8 µM
CC50 at 48 h [13]: 75 µM
TPA-induced AP-1 promoter activity (luciferase) (AP-1 promoter): able to block
KSHV-induced productions of VEGF-A, IL-6 and IL-8 (ELISA) (KSHV-infected HUVECs): inhibited by C10
cell migration and invasion of KSHV-PDLSC (Transwell) (KSHV-infected PDLSCs [14]): able to block cell migration and invasion
effect on APE1 exonuclease activity ([6]; up to 100 μM of C10): unaffected
KSHV-induced angiogenesis in Matrigel plug (blood vessel formation, hemoglobin content) [15]: dramatically inhibited in a dose dependent manner
